Where a name gives a salt, the structure may show the parent alone. Read-outs that look alike come from different tables or passages of the source.
Experiments:
serotonin 1A receptor = target: T1, serotonin 1A receptor (Rattus norvegicus, UniProt P19327); assay: Binding test on [3H] 8-hydroxy-dipropylaminotetralin, hippocampus receptor fraction; set-up: species or system SD rats
T1 construct: To the receptor fraction of the hippocampus were added a test compound and 0.5 nM of [^3H]; 8-hydroxy-dipropylaminotetralin; from tissue; host or cells: rat hippocampus membrane fraction
T1 sequence (P19327 1-422): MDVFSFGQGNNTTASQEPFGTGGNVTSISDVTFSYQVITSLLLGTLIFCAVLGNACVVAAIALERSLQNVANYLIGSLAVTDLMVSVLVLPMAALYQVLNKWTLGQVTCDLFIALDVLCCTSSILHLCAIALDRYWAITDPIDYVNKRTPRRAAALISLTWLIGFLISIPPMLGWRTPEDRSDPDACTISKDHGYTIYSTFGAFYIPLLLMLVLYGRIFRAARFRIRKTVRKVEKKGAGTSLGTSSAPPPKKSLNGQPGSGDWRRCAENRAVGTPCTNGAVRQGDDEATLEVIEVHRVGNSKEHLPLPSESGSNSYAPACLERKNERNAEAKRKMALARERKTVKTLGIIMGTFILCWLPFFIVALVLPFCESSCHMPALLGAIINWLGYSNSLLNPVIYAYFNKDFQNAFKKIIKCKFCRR

serotonin 2 receptor = target: T2, serotonin 2 receptor (Rattus norvegicus, UniProt P14842); assay: Binding test on [3H] ketanserin, cerebral cortex receptor fraction; set-up: species or system SD rats; settings: 0.3 nM [3H] ketanserin, 37° C. 15 min, read-out: 5HT2
T2 construct: To the receptor fraction of the cerebral cortex were added a test compound and 0.3 nM of [^3H] ketanserin; from tissue; host or cells: rat cerebral cortex membrane fraction

[1] = rat hippocampus receptor fraction, 0.5 nM [3H] 8-OH-DPAT, room temperature 30 min, read-out: 5HT1

T2 sequence (P14842 whole entry): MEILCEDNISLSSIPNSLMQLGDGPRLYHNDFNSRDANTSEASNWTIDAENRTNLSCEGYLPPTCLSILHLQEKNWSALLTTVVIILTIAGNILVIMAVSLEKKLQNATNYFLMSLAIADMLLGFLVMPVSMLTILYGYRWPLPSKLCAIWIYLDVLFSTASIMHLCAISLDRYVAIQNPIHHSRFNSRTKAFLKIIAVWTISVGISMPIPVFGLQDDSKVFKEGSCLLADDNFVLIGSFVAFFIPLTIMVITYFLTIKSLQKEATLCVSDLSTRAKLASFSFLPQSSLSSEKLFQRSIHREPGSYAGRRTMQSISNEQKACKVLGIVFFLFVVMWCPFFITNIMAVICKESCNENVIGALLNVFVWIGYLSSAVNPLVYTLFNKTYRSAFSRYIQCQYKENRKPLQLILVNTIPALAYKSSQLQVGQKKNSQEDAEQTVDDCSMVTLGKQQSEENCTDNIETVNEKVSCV

Row | SMILES | Ki (serotonin 1A receptor; [1]) [nM] | Ki (serotonin 2 receptor) [nM] | Ki (serotonin 1A receptor) [nM]
1 | CCN1CCN(c2nc(-c3ccc(OCC(C)(C)O)cc3)cc3cccnc23)CC1 [Example 250, 8-(1-ethylpiperazin-4-yl)-6-[4-(2-hydroxy-2-methylpropoxy)phenyl]-1,7-naphthyridine Dihydrochloride] | 123 | 7.67 | 
2 | CCN1CCN(c2nc(-c3ccc(OCCO)nc3)cc3ccsc23)CC1 [Example 268, 5-[2-(2-hydroxyethoxy)pyridin-5-yl]-7-(4-ethylpiperazin-1-yl)thieno[2,3-c]pyridine Oxalate] | 16.5 | 86 | 
3 | CCN1CCN(c2nc(-c3ccc(N4CCC(O)CC4)cc3)cc3ccccc23)CC1 [Example 97, 1-(4-Ethylpiperazin-1-yl)-3-[4-(4-hydroxypiperidin-1-yl)phenyl]isoquinoline Trihydrochloride] | 34.7 | 13.3 | 
4 | CCN1CCN(c2nc(-c3ccc(CO)c(F)c3)cc3ccccc23)CC1 [Example 28, 1-(4-ethylpiperazin-1-yl)-3-[4-(4-hydroxymethyl-3-fluoro)phenyl]isoquinoline hydrochloride] | 24.4 | 9.1 | 
5 | CCN1CCN(c2nc(-c3ccc(S(C)(=O)=O)nc3)cc3ccccc23)CC1 [Example 129, 3-[(2-Methylsulfonylpyridin)-5-yl]-1-(4-Ethylpiperazin-1-yl)Isoquinoline Hydrochloride] | 21.6 | 18.4 | 
6 | CCN1CCN(c2nc(-c3ccc(N4CCOCC4)cn3)cc3ccccc23)CC1 [Example 148, 1-(4-ethylpiperazin-1-yl)-3-[5-(morpholin-4-yl)pyridin-2-yl]isoquinoline trihydrochloride] | 6.33 | 7.85 | 
7 | CCN1CCN(c2nc(-c3ccc(C4=CCC(O)CC4)cc3)cc3ccsc23)CC1 (stereo not drawn) [Example 270, 5-[4-(4-hydroxycyclohexen-1-yl)phenyl]-7-(4-ethylpiperazin-1-yl)thieno[2,3-c]pyridine hydrochloride] | 43 | 30.3 | 
8 | CCN1CCN(c2nc(-c3ccc(CCCO)c(C#N)c3)cc3ccsc23)CC1 [Example 262, 5-[4-(3-hydroxypropyl)-3-cyanophenyl]-7-(4-ethylpiperazin-1-yl)thieno[2,3-c]pyridine Oxalate] | 9.04 | 0.25 | 
9 | CCN1CCN(c2nc(-c3ccc(S(=O)(=O)CC)nc3)cc3ccccc23)CC1 [Example 130, 3-[(2-Ethylsulfonylpyridin)-5-yl]-1-(4-Ethylpiperazin-1-yl)Isoquinoline Hydrochloride] | 24.4 | 17 | 
10 | CCN1CCN(c2nc(-c3ccc(CS(=O)(=O)N(CC)CC)cc3)cc3ccccc23)CC1 [Example 82, 3-[4-(N,N-diethylamino)sulfonylmethylphenyl]-1-(4-ethylpiperazin-1-yl)isoquinoline Hydrochloride] | 0.2 | 10.8 | 
11 | CCN1CCN(c2nc(-c3ccc(N4CCOCC4)nc3)cc3ccccc23)CC1 [Example 147, 1-(4-ethylpiperazin-1-yl)-3-[2-(morpholin-4-yl)pyridin-5-yl]isoquinoline trihydrochloride] | 6.5 | 1.7 | 
12 | CCN1CCN(c2nc(-c3ccc(OC(C)COC)nc3)cc3ccsc23)CC1 (stereo not drawn) [Example 267, 5-[2-(2-methoxyethoxy-2-methyl)pyridin-5-yl]-7-(4-ethylpiperazin-1-yl)thieno[2,3-c]pyridine Hydrochloride] | 10.4 | 68.7 | 
13 | CCN1CCN(c2nc(-c3ccc(OCCCC(C)(C)O)cc3)cc3sccc23)CC1 [Example 292, 6-[4-(4-methyl-4-hydroxypentyloxy)phenyl]-4-(4-ethylpiperazin-1-yl)thieno[3,2-c]pyridine] | 68.6 | 22.4 | 
14 | CCN1CCN(c2nc(/C=C(\C)c3ccccc3)cc3ccccc23)CC1 [Example 196, 1-(1-Ethylpiperazin-4-Yl)-3-(Trans-2-Methyl-2-Phenylethen-1-Yl)Isoquinoline Oxalate] | 66.7 | 6.44 | 
15 | CCN1CCN(c2nc(-c3ccc(OCC4OCCO4)cc3)cc3ccccc23)CC1 [Example 336, 1-(4-ethylpiperazin-1-yl)-3-[4-(1,3-dioxolan-2-ylmethyloxy)phenyl]isoquinoline] | 45.7 | 2.6 | 
16 | CCN1CCN(c2nc(-c3ccc(CO)s3)cc3ccccc23)CC1 [Example 162, 1-(1-ethylpiperazin-4-yl)-3-(2-hydroxymethylthiophen-5-yl)isoquinoline dihydrochloride] | 10.7 | 84.7 | 
17 | CCN1CCN(c2nc(-c3ccc4c(c3)CCC4O)cc3ccccc23)CC1 (stereo not drawn) [Example 415, 1-(4-ethylpiperazin-1-yl)-3-(1-hydroxyindan-5-yl)isoquinoline] | 3.6 | 11.6 | 
18 | CCN1CCN(c2nc(-c3ccc4c(c3)OCO4)cc3ccccc23)CC1 [Example 46, 3-(3,4-Methylenedioxyphenyl)-1-(4-Ethylpiperazin-1-Yl)Isoquinoline Hydrochloride] | 58 | 12.7 | 
19 | CCN1CCN(c2nc(-c3cccc(OCCO)c3)cc3ccsc23)CC1 [Example 258, 7-(1-ethylpiperazin-4-yl)-5-[3-(2-hydroxyethoxy)phenyl]thieno[2,3-c]pyridine Dihydrochloride] | 24.7 | 35.1 | 
20 | CCNC(=O)Oc1ccc(-c2cc3ccccc3c(N3CCN(CC)CC3)n2)cc1 [Example 59] |  | 14.3 | 16.3
21 | CCN1CCN(c2nc(-c3ccc(N4CCOC4=O)cc3)cc3ccccc23)CC1 [Example 95, 3-[4-(3-Oxazolidinone)phenyl]-1-(4-ethylpiperazin-1-yl)isoquinoline Hydrochloride] | 7.8 | 21.2 | 
22 | CCC#Cc1ccc(-c2cc3ccccc3c(N3CCN(CC)CC3)n2)cn1 [Example 146, 1-(1-ethylpiperazin-4-yl)-3-[2-(1-butyn-1-yl)pyridin-5-yl]isoquinoline] | 170 | 2.9 | 
23 | CCN1CCN(c2nc(-c3cc(OCCO)cc(OCCO)c3)cc3ccccc23)CC1 [Example 38, 3-[3,5-di(2-hydroxyethoxy)phenyl]-1-(4-ethylpiperazin-1-yl)isoquinoline hydrochloride] | 20.8 | 75.7 | 

The next lines start with results.

Row | Ki (serotonin 1A receptor; [1]) [nM] | Ki (serotonin 2 receptor) [nM] | SMILES | Ki (serotonin 1A receptor) [nM]
24 | 91 | 0.01 | CCN1CCN(c2nc(-c3ccc(OCC(C)(C)O)cc3)cc3ccccc23)CC1 [Example 309, 1-(1-ethylpiperazin-4-yl)-3-[4-(2-hydroxy-2-methylpropoxy)phenyl]isoquinoline dihydrochloride] | 
25 | 17.3 | 4.2 | CCN1CCN(c2nc(-c3ccc4c(c3)CCC4=O)cc3ccccc23)CC1 [Example 414, 1-(4-ethylpiperazin-1-yl)-3-(1-indanon-5-yl)isoquinoline] | 
26 | 71.4 | 52.1 | CCN1CCN(c2nc(-c3ccc(OC)cc3)cc3cscc23)CC1 [Example 277, 4-(4-ethylpiperazin-1-yl)-6-(4-methoxyphenyl)thieno[3,4-c]pyridine oxalate] | 
27 | 21.7 | 3.9 | CCNC(=O)c1ccc(-c2cc3ccccc3c(N3CCN(CC)CC3)n2)cc1 [Example 364, 1-(4-ethylpiperazin-1-yl)-3-[4-(N-ethylcarbamoyl)phenyl]isoquinoline dihydrochloride] | 
28 | 31.8 | 41.7 | CCN1CCN(c2nc(-c3ccc(C(=O)NCCO)cc3)cc3ccccc23)CC1 [Example 346, 1-(4-ethylpiperazin-1-yl)-3-{4-(N-(2-hydroxyethyl)carbamoyl]phenyl}isoquinoline dihydrochloride] | 
29 | 14.2 | 7.3 | CCN1CCN(c2nc(-c3ccc(CC(C)(C)CO)cc3)cc3ccccc23)CC1 [Example 389, 1-(4-Ethylpiperazin-1-yl)-3-[4-(3-Hydroxy-2,2-Dimethylpropyl)Phenyl]Isoquinoline Oxalate] | 
30 | 4.5 | 24.1 | CCN1CCN(c2nc(-c3ccc(S(=O)(=O)N(C)C)cc3)cc3ccccc23)CC1 [Example 362, 1-(4-ethylpiperazin-1-yl)-3-[4-(N,N-dimethylsulfamoyl)phenyl]isoquinoline dihydrochloride] | 
31 | 25.7 | 5.6 | CCN1CCN(c2nc(-c3ccc(OCC(O)CO)cc3)cc3ccccc23)CC1 (stereo not drawn) [Example 337, 1-(4-ethylpiperazin-1-yl)-3-[4-(2,3-dihydroxypropoxy)phenyl]isoquinoline dihydrochloride] | 
32 | 8 | 5.9 | CCN1CCN(c2nc(-c3ccc([C@H]4CC[C@H](O)CC4)cc3)cc3ccccc23)CC1 [Example 398, 1-(4-Ethylpiperazin-1-yl)-3-[4-(trans-4-Hydroxycyclohexyl)Phenyl]Isoquinoline Dihydrochloride] | 
33 | 67.4 | 26.5 | CCN1CCN(c2nc(-c3ccc([C@@H]4C[C@H](O)CCO4)cc3)cc3ccsc23)CC1 (relative stereo) [Example 454, 7-(4-Ethylpiperazin-1-yl)-5-[4-(cis-4-hydroxytetrahydropyran-2-yl)phenyl]thieno[2,3-c]pyridine dihydrochloride] | 

Reference: patent US6875761B2 (Eisai Co., Ltd., priority 1997, dated 2005)
